From US20260216170A1, “TETRAHYDROISOQUINOLINE HETEROBIFUNCTIONAL BCL-XL DEGRADERS” (Treeline Biosciences, Inc., priority 2023, published 2026) come the findings set out here.

This test has as its target T1, Human BCL-XL protein (N-terminal HiBiT tagged BCL-XL expressed in HT1080 cells) (Homo sapiens, UniProt Q07817).
T1 construct: expressed in transfected cells; host or cells: HT-1080 (ATCC CCL-121), stably transduced with lentivirus pLV-UBC-N-HiBiT-BCL-XL-PGK-puro and selected with puromycin
The experiment in a line: HiBiT Based Degradation Assay. The test is classed as cell-based. As to conditions: 24 hours incubation; for DC50: BCL-XL degradation, HT1080 cells expressing N-HiBiT-BCL-XL, normalized with DMSO control, geometric mean for multiple data points, read-out: EC50 (24 h); for Ymin (24 h): bottom of BCL-XL degradation curve (remaining HiBiT-BCL-XL signal vs DMSO control), HT1080 cells. The method, boiled down: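 BCL-XL degradation was read as Nano-Glo HiBiT lytic luminescence relative to DMSO after a 24 h compound treatment of HT1080 cells carrying stably integrated N-HiBiT-BCL-XL. EC50 values come from four-parameter logistic curves, with the hook-curve minimum fixed as bottom, and are geometric means where tested repeatedly.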

T1 sequence (Q07817 whole entry): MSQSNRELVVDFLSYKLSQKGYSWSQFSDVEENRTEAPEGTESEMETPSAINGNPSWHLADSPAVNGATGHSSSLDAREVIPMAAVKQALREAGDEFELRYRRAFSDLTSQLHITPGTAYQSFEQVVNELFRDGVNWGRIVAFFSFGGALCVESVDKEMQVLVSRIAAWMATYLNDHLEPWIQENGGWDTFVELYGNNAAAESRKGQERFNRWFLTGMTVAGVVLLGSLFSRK

As for `Cc1c(OCC2CC3(CCN(CCNc4ccc5c(C6CCC(=O)NC6=O)nn(C)c5c4)CC3)C2)cccc1-c1ccc(N2CCc3cccc(C(=O)Nc4nc5ccccc5s4)c3C2)nc1C(=O)O` (centres unmarked) [Compound 153, 6-[8-(1,3-benzothiazol-2-ylcarbamoyl)-3,4-dihydro-1H-isoquinolin-2-yl]-3-[3-[[7-[2-[[3-(2,6-dioxo-3-piperidyl)-1-methyl-indazol-6-yl]amino]ethyl]-7-azaspiro[3.5]nonan-2-yl]methoxy]-2-methyl-phenyl]pyridine-2-carboxylic acid], the DC50 is < 10 nM and the “Ymin (24 h)” value is “A (Ymin < 30%)”.

In the case of `COc1cc2c(C3CCC(=O)NC3=O)nn(C)c2cc1NC(=O)CN1CCC(CCCOc2ccc(-c3ccc(N4CCc5cccc(C(=O)Nc6nc7ccccc7s6)c5C4)nc3C(=O)O)c(C)c2)CC1` (centres unmarked) [Compound 103, 6-[8-(1,3-benzothiazol-2-ylcarbamoyl)-3,4-dihydro-1H-isoquinolin-2-yl]-3-[4-[3-[1-[2-[[3-(2,6-dioxo-3-piperidyl)-5-methoxy-1-methyl-indazol-6-yl]amino]-2-oxo-ethyl]-4-piperidyl]propoxy]-2-methyl-phenyl]pyridine-2-carboxylic acid], the DC50 was 100 to 1000 nM and the “Ymin (24 h)” value is “B (30% ≤ Ymin < 50%)”.

On to `Cc1cc(OCC2CC3(CCN(CC(=O)Nc4ccc5c(C6CCC(=O)NC6=O)nn(C)c5c4C)CC3)C2)ccc1-c1ccc(N2CCc3cccc(C(=O)Nc4nc5ccccc5s4)c3C2)nc1C(=O)O` (centres unmarked) [Compound 124, 6-(8-(benzo[d]thiazol-2-ylcarbamoyl)-3,4-dihydroisoquinolin-2(1H)-yl)-3-(4-((7-(2-((3-(2,6-dioxopiperidin-3-yl)-1,7-dimethyl-1H-indazol-6-yl)amino)-2-oxoethyl)-7-azaspiro[3.5]nonan-2-yl)methoxy)-2-methylphenyl)picolinic acid], for which the DC50 was < 10 nM and the “Ymin (24 h)” value is given as “B (30% ≤ Ymin < 50%)”.

Consider `Cc1c(OC2CC3(CCN(CC(=O)Nc4ccc5c(C6CCC(=O)NC6=O)nn(C)c5c4F)CC3)C2)cccc1-c1ccc(N2CCc3cccc(C(=O)Nc4nc5ccccc5s4)c3C2)nc1C(=O)O` (centres unmarked) [Compound 190, 6-(8-(benzo[d]thiazol-2-ylcarbamoyl)-3,4-dihydroisoquinolin-2(1H)-yl)-3-(3-((7-(2-((3-(2,6-dioxopiperidin-3-yl)-7-fluoro-1-methyl-1H-indazol-6-yl)amino)-2-oxoethyl)-7-azaspiro[3.5]nonan-2-yl)oxy)-2-methylphenyl)picolinic acid], for which the DC50 is < 10 nM and the “Ymin (24 h)” value is given as “B (30% ≤ Ymin < 50%)”.

Take `Cc1cc(OC[C@@H]2C[C@@H]2CC2CCN(CC(=O)Nc3ccc4c(C5CCC(=O)NC5=O)nn(C)c4c3)CC2)ccc1-c1ccc(N2CCc3cccc(C(=O)Nc4nc5ccccc5s4)c3C2)nc1C(=O)O` (single isomer, unassigned) [Compound 1002d]: the DC50 was < 10 nM and the “Ymin (24 h)” value is “A (Ymin < 30%)”.

In the case of `Cn1nc(C2CCC(=O)NC2=O)c2ccc(NC(=O)CN3CCC4(CCC(Oc5ccc(-c6ccc(N7CCc8cccc(C(=O)Nc9nc%10ccccc%10s9)c8C7)nc6C(=O)O)c(C(F)(F)F)c5)CC4)CC3)cc21` (centres unmarked) [Compound 197], the DC50 is < 10 nM and the “Ymin (24 h)” value is “B (30% ≤ Ymin < 50%)”.

On to `Cc1cc(OCCC2CC3(CCN(CC(=O)Nc4ccc5c(C6CCC(=O)NC6=O)nn(C)c5c4)CC3)C2)ccc1-c1ccc(N2CCc3cccc(C(=O)Nc4nc5ccccc5s4)c3C2)nc1C(=O)O` (centres unmarked) [Compound 115, 6-(8-(benzo[d]thiazol-2-ylcarbamoyl)-3,4-dihydroisoquinolin-2(1H)-yl)-3-(4-(2-(7-(2-((3-(2,6-dioxopiperidin-3-yl)-1-methyl-1H-indazol-6-yl)amino)-2-oxoethyl)-7-azaspiro[3.5]nonan-2-yl)ethoxy)-2-methylphenyl)picolinic acid], for which the DC50 was 10 to 100 nM and the “Ymin (24 h)” value was “B (30% ≤ Ymin < 50%)”.
